These are literature values, as cited in patent publication US8618022B2, “Process for preparing an aqueous suspension of an organic pesticide compound” (priority 2009, dated 2013).

≈ marks a conversion by molar mass, not a printed value. Bounds are passed on as bounds.

For one data set the following is noted: at 20° C.
Consider `COC(=O)N(OC)c1ccccc1COc1ccn(-c2ccc(Cl)cc2)n1` [pyraclostrobin, methyl {2-[1-(4-chlorophenyl)pyrazol-3-yloxymethyl]phenyl}-(methoxy)carbamate], for which the solubility in water was less than 2 µg/mL.

The data set is the same for the next values; noted with them: deionised water at 20° C.
`CC1(C)CCC(Cc2ccc(Cl)cc2)C1(O)Cn1cncn1` (stereo not shown) [metconazol]: the water solubility was 1400 mg/L (≈ 4380 µM). Regarding `ClC1=C(Cl)C2(Cl)C3C4C=CC(C4)C3C1(Cl)C2(Cl)Cl` (stereo not shown) [aldrin], the water solubility is on record as <<1 mg/l. Turning to `COP(=S)(OC)Oc1cc(Cl)c(Br)cc1Cl` [bromophos], the water solubility was 40 mg/L (≈ 109 µM). For the molecule `CC(C)OC(=O)c1cc(C(=O)OC(C)C)cc([N+](=O)[O-])c1` [nitrothal-isopropyl], the water solubility was 0.4 mg/L (≈ 1.35 µM). Regarding `CC(C)OC(=O)C(O)(c1ccc(Br)cc1)c1ccc(Br)cc1` [bromopropylate], the water solubility is less than 5 mg/L. For `COP(=S)(OC)SCN1C(=O)c2ccccc2C1=O` [phosmet], the water solubility is 25 mg/L (≈ 78.8 µM). `CCCCN(CC)c1c([N+](=O)[O-])cc(C(F)(F)F)cc1[N+](=O)[O-]` [benfluralin]: the water solubility is less than 1 mg/L. As for `Cc1c(COC(=O)[C@@H]2[C@H](/C=C(\Cl)C(F)(F)F)C2(C)C)cccc1-c1ccccc1` (racemic) [bifenthrin], the water solubility is 0.1 mg/L (≈ 0.236 µM). Turning to `CCOP(=S)(OCC)Oc1nc(Cl)c(Cl)cc1Cl` [chlorpyriphos], the water solubility was 2 mg/L (≈ 5.7 µM).

Consider `CO/C=C(/C(=O)OC)c1ccccc1COc1cccc(C(F)(F)F)n1` [picoxystrobin], for which the water solubility was 3.1 mg/L (≈ 8.44 µM). Take `O=C(Nc1ccc(F)cc1)c1cccc(Oc2cccc(C(F)(F)F)c2)n1` [picolinafen]: the water solubility was less than 0.1 mg/L. On to `CCOP(=S)(OCC)ON=C(C#N)c1ccccc1Cl` [chlorphoxim], for which the water solubility was 2 mg/L (≈ 6.01 µM).
